As usually defined, the IC50 is the concentration that gives 50% inhibition.

For assay [1], the system named is WEHI-231 OE cells. In words: Viability by PI staining and FACS, WEHI-231 OE. The class given is cell-based, murine. The settings on record: 24 hours. How it is done: (§1) FIG. 11B. WEHI-231 JM and OE cells are equally sensitive to inhibition of sphingosine kinase and exogenous ceramide. Cells were treated with increasing concentrations of C2-ceramide or DL-threo-dihydrosphingosine--apotent inhibitor of sphingosine kinase. Viability was assayed using PI staining and FACS analysis 24 hours after treatment.
(§2) For viability staining, 2.5-3.5×10^5 cells were treated with varying concentrations of C2-ceramide, irradiation, or both.
(§3) In order to address the question of whether the resistance of the OE subline was due, in part, to alterations in ceramide metabolites or targets, three studies were performed. […] Both cell lines were equally susceptible to the effects of sphingosine kinase inhibition and the resulting […] in ceramide. […] Thus the radioresistance can be attributed to the lack of sphingomyelinase activation and the subsequent decreased ceramide production following irradiation.

Assay [2] relates to SQ20-B cells. In words: Clonogenic survival / colony formation assay. As to conditions: 20 μM C2-ceramide 30 minutes prior to x-ray. Format: cell-based, human. Here is the method: FIG. 2. Chelerythrine chloride enhanced IR-mediated cell killing through divisional death. Clonogenic survival was measured following exposure to increasing concentrations of chelerythrine and ionizing radiation. Cells were plated at cell numbers between about 500 cells/plate and about 2000 cells/plate and treated with 0 μM, 0.5 μM, or 1.0 μM chelerythrine chloride for 30 minutes prior to irradiation. After 2 weeks the colonies were scored for survival if they were composed of more than 50 cells. Results represent the mean of three individual experiments with duplicate or triplicate determinants. Error bars represent +/- the standard error of the means (SEM).
FIG. 5C. […] Closed circles represent radiation alone; closed squares represenet addition of 20 μM C2-Ceramide 30 minutes prior to x-ray.
Exponentially growing SQ20B cultures were trypsinized using 0.05% trypsin+0.02% EDTA. Cells (100 to 50,000) were plated in 100 mm tissue culture dishes. Chelerythrine or C2-ceramide was added 4 hours after plating and irradiated for 30 minutes after the addition of chelerythrine or C2-ceramide. The cells were irradiated using a GE Maxitron 250 x-ray generator operating at 250 kV and 26 mA with a dose rate of 114 cGy/min. After 12 days the cells were fixed and stained with crystal violet following standard procedures (Chmura et al., 1996a; 1996b). Colonies of >50 cells were scored as survivors.
Clonogenic survival was measured following increasing concentrations of chelerythrine chloride alone (0.5-1.5 μM), IR alone (1-9 Gy), or the combined treatment of cells with chelerythrine and IR. […] At a concentration of 500 nM, chelerythrine decreased cell survival to about 80% of untreated control cells (about 20% cell death). The combined treatment of cells with 500 nM of chelerythrine 30 minutes prior to treatment with 3 Gy of radiation decreased cell survival to about 30% of untreated cells (about 70% cell death). […] Cell shrinkage and nuclear condensation, characteristic of apoptosis, were not observed at these concentrations of chelerythrine and IR.

The test system of assay [3] is WEHI-231 OE cells. As to the kind of experiment: Radiation mediated apoptosis of WEHI-231 OE cells after C2-ceramide pre-treatment. The settings on record: C2-ceramide 30 minutes prior to 8 Gy, 24 hours. Format: cell-based, murine. How it is done:
FIG. 11A-1, FIG. 11A-2, and FIG. 11A-3. Exogenous ceramide can sensitize WEHI-231 OE cells to radiation mediated apoptosis. C2-ceramide (Cer) was added to 3×10^5 WEHI-231 OE cells 30 minutes prior to treatment with 8 Gy. Apoptosis was quantitated using propidium iodide staining and FACS analysis. Percent apoptotic cells are shown in gate R2 twenty-four hours following irradiation.
as §2, §3

A further assay deals with WEHI-231 JM cells. In words: Viability by PI staining and FACS, WEHI-231 JM. Format: cell-based, murine. As to conditions: 24 hours. Here is the method: as §1, §2, §3
A further assay relates to WEHI-231 cells. In words: Reactive oxygen species by dichlorodihydrofluorescein and FACS. The settings on record: 30 μM ceramide or 10 μM chelerythrine, 15 minutes; anti-IgM 2 hours. The class given is cell-based, murine. How it is done: FIGS. 8A-8C. Exogenous ceramide and PKC inhibition induce oxidative changes in WEHI-231 cells. WEHI-231 cells (1×10^6) were treated with anti-IgM antibodies for 2 hours (FIG. 8A), 30 μM exogenous ceramide for 15 minutes (FIG. 8B) or 10 μM chelerythrine for 15 minutes (FIG. 8C). The reactive oxygen species in the cells was then measured using dichlorodihydrofluorescein (DCHF-DA) and quantitated using FACS analysis. Histogram analysis of fluorescence is plotted as LOG function.
The mechanisms by which ceramide may mediate cell death is yet unknown. […] Since changes in oxidative status induced a wide range of cellular responses including growth and apoptosis in WEHI-231 and other lymphocytes, the inhibition of PKC and a resulting accumulation of ceramide were studied for their affect on the level of reactive oxygen species within the cell using the dye dichlorodihydrofluorescein and FACS analysis. […] While non-toxic oxidation may promote cell growth, intracellular reduction may lead to the activation of cysteine proteases which are proposed mediators of apoptosis.

Assay [4] concerns bcl-x WEHI-231, MG and WEHI-231 OE (JM) cells. As to the kind of experiment: Effect of protease inhibitors on chelerythrine induced apoptosis in apoptosis-resistant cell lines. Format: cell-based. The settings on record: ZVAD 20 μM, even at doses >15 μM chelerythrine. Here is the method: Using the procedures already described (Chmura, 1996; Chmura et al., 1996a; Chmura et al., 1996b), three different apoptosis-resistant cell lines were examined for their susceptibility to apoptosis induced by chelerythrine. The three cell lines used were bcl-x WEHI-231, which represents WEHI-231 cells that have been transfected with bcl-x and are highly resistant to radiation induce apoptosis, MG cells and the WEHI-231 OE (JM) cells previously described.
All three cell lines were treated with chelerythrine and x-irradiation as previously described (Chmura et al., 1996a; Chmura et al., 1996b) with the following modifications. Cells were pre-exposed to YVAD-cmk (100 μM), a protease inhibitor of the interleukin 1-b converting enzyme (ICE) subfamily or to ZVAD (20 μM), which inhibits the cpp32β family of proteases, for 30 minutes before being subjected to chelerythrine.

Assay [5] has as its system SQ20-B cells. In words: Apoptosis in SQ20-B (propidium iodide FACS, DAPI staining, DNA laddering). The class given is cell-based, human. How it is done:
FIGS. 3A-3E. […] M1 defines the % of apoptotic cells as defined by (a) propidium iodide uptake of 1 log or more fluorescence and (b) a decrease in cell size of 50% or more. FL3-Height indicated the uptake of propidium by the cell. In FIG. 3A, M1=5%; FIG. 3B, M1=22%; FIG. 3C, M1=73%; FIG. 3D, M1=16%; FIG. 3E, M1=24%.
Cells undergoing apoptosis also shrink in size.
Cells, 5×10^5, were centrifuged at 1000 rpm and resuspended in approximately 100 μl cell culture media. The cell suspension was then mixed with 100 μl of DAPI (4',6-iamidino-2-phenylindole, Sigma D9542, 1 μg/ml in PBT (PBS+1% Triton X-100)). One drop of this mixture was placed on a microslide with a coverslip. The cells were viewed by fluorescence microscopy using an Olympus BX-40 microscope with a 100 Watt Mercury lamp, a 16 or 40 X Fluorite objective, N.A. 0.75, (Leco #1-UB527) and a UV filter cube (ex 330-385 nm, em 420 nm, wide band pass, Leco #U-M536). Images were photographed using an Optronics cooled low-light video camera (Leco #DEI-470TB) to which was attached a 2X coupler (Leco #HR200-CMT). The image was saved to a digital file at 72 dpi.
DNA degradation was assessed as previously described (Gottschalk et al., 1993; 1994). Briefly, following treatment in 100 mm plates or 24 well plates, cells were collected and lysed in 0.5 ml lysis buffer (0.6% SDS+10 mM EDTA, pH 7.0). […]

For the compound `CCCCCCCCCCCCC/C=C/[C@@H](O)[C@H](CO)NC(C)=O` [C2-ceramide], the IC50 with WEHI-231 OE cells [1] and with WEHI-231 JM cells was 3 µM in each case. Also, the “clonogenic survival of irradiated cultures (words)” value is listed as “decreased clonogenic survival” with SQ20-B cells [2] (listed as C2-Ceramide) and “enhanced IR induced cell killing” with SQ20-B cells [2] (listed as ceramide). Moreover, the “apoptotic response of irradiated cells” value with WEHI-231 OE cells [3] is “restored the apoptotic response at 24 hours”. Besides, in the assay with WEHI-231 cells, the “reactive oxygen species (ROS)” value was “reduced the ROS in the cells”.

Consider zVAD-fmk, for which the “inhibition of chelerythrine induced apoptosis” value in assay [4] was “did block chelerythrine induced apoptosis”. Further, in the assay with SQ20-B cells [5] (zVAD-fmk 20 μM), the “apoptosis following combined IR and chelerythrine (2.5 μM), inhibition” value is on record as “inhibited apoptosis”. The “chelerythrine induced apoptosis, inhibition” value in the assay on SQ20-B cells [5] (zVAD-fmk with chelerythrine) is “blocked chelerythrine induced apoptosis”.

Values taken from patent publication US6025365A, “Chelerythrine and radiation combined tumor therapy” (Arch Development Corp., priority 1997, dated 2000).
